Measurements as given in US8399412B2, “Method of treating or preventing tissue deterioration, injury or damage due to periodontal disease or disease of oral mucosa, and/or downregulating NF-kappabeta or supressing NF-kappabeta-mediated actions” (priority 2006, dated 2013).

Tests used:
[1] = system: NFκB p65 subunit; assay: Nuclear translocation of NFκB p65 by immunofluorescence microscopy in HCET; type: cell-based, human; settings: Tβ4 1 μg/ml during TNF-α stimulation, 30 minutes
Description: HCET were cultured on collagen-coated 4 chambered glass microscope slides to approximately 80% confluence. […] Cells maintained in culture medium only, or Tβ4 only were used as controls. Cells were fixed in 3.7% glutaraldehyde/PBS for 10 minutes then washed in PBS. Cells were permeabilized in 1% Triton X-100 for 5 minutes and washed again. The cells were then incubated with rabbit polyclonal antibodies specific for the N-terminus of human p65 NFκB (Santa Cruz Biotechnologies, Santa Cruz, Calif.) followed by FITC-conjugated goat anti-rabbit secondary antibodies. Digitized images were captured and stored (Axiophot fluorescence microscopy and imaging system, Carl Zeiss Medicine, Inc., Thornwood, N.Y.).
The nuclear translocation of NFκB was also examined morphologically in HCET by immunofluoresence microscopy using an antibody specific for the p65 subunit.

[2] = system: NFκB; assay: NFκB activity assay (binding to consensus oligonucleotides) in TNF-α stimulated HCET; type: cell-based, human; settings: TNF-α 10 ng/ml
Description: (§1) At each time point the culture medium was removed and the adherent cells were scraped from the dish into 1 ml of cold PBS. The solution was centrifuged at 3000 rpm for 5 minutes. The cell pellet was lysed in 1 ml of cell extraction buffer provided with the activity assay kit (TransAm NFκB p65 Transcription Factor Assay Kit, Active Motif, Carlsbad, Calif.) on ice for 30 minutes, with vortexing every 10 minutes. The extract was centrifuged at 13,000 rpm for 10 minutes at 4° C. and the supernatant was used for activity assays following the kit protocol. In addition to the activity assay, the ELISA for total NFκB p65 subunit protein was completed simultaneously using aliquots of the same supernatants. ELISA values were used to standardize the activity values to correct for differences in protein concentration in each sample. The assays were repeated three times (n=3) and the results of a representative assay are reported as NFκB activity in arbitrary units±SEM. Statistical analysis was performed using the unpaired Student's t-test with significance set at P<0.05.
We hypothesized that Tβ4 functions as a transcription factor mediator in addition to its other known cellular functions. […] Transcription factor activity was analyzed calorimetrically using an assay that measured the ability of NFκB to bind to oligonucleotides containing consensus κB binding motifs immobilized to a plastic substrate. […]

[3] = system: NFκB p65 subunit; assay: NFκB p65 phosphorylation assay (CASE ELISA, phosphoserine 276) in HCET; type: cell-based, human; settings: 30 minutes
Description: HCET were cultured in wells of a 96-well plate until approximately 80% confluent. […] At each time point adherent cells were fixed in cell fixing buffer containing 4% glutaraldehyde according to the phosphorylation assay kit protocol (CASE, cellular activation of signaling ELISA for phosphoserine 276 of NFκB p65 subunit, SuperArray, Frederick, Md.). Fixed cells were then processed using phospho-specific (phosphoserine 276 p65) or pan-protein specific (nonphosphorylated p65) primary antibodies and HRP-conjugated secondary antibodies. Following incubation with developing and stop solutions provided with the kit, individual well absorbance was read at 450 nm. Variation in cell number in individual wells was corrected by assaying the OD 540 nm of stained cells following completion of the phosphorylation assay and performing numerical correction of the OD 450 nm values. The assay was repeated twice (n=8) and a representative result is presented as relative amounts of phosphorylated and nonphosphorylated NFκB in arbitrary units±SEM. Statistical analysis was performed using the unpaired Student's t-test with significance set at P<0.05.
In addition to nuclear translocation, the p65 subunit of NFκB must undergo phosphorylation on several serine residues in order to be activated. […]

[4] = system: NFκB p65 subunit; assay: Nuclear NFκB p65 protein level ELISA in HCET nuclear fractions; type: cell-based, human; settings: TNF-α 10 ng/ml, Tβ4 1 μg/ml, 30 minutes, P=0.0066
Description: HCET were cultured until approximately 80% confluent. […] Cells maintained in culture medium only, or Tβ4 only were used as controls. The culture medium was removed and the adherent cells were scraped from the dish into 1 ml of cold PBS. The solution was centrifuged at 3000 rpm for 5 minutes. The cell pellet was resuspended in 0.5 ml hypotonic buffer (20 mM Tris-HCl, pH 7.4, 10 mM NaCl, 3 mM MgCl2) and incubated on ice for 15 minutes. 25 μl of 10% NP-40 was added with vortexing. The homogenate was centrifuged for 10 minutes at 3000 rpm at 4° C. The pellet was resuspended in 100 μl of the cell extraction buffer and incubated for 30 minutes on ice with vortexing every 10 minutes. The homogenate was centrifuged at 14,000 rpm for 30 minutes at 4° C. The resulting supernatant was used for the NFκB total p65 subunit ELISA. A representative analysis is presented as NFκB protein (pg/ml)±SEM. Statistical analysis was performed using the unpaired Student's t-test with significance set at P<0.05.
Nuclear translocation is an essential downstream event in NFκB mediated gene transcription. […] HCET were treated for 30 minutes and the amount of NFκB protein in nuclear fractions was measured by ELISA. Only activated, phosphorylated NFκB is capable of translocating to the nucleus.

[5] = system: IL-8; assay: TNFα-induced IL-8 secretion by gingival fibroblasts (ELISA); type: cell-based, Human; settings: for secreted IL-8 versus fibroblasts not treated with Tβ4: gingival fibroblasts, 20 ng/ml TNF alpha
Description: Human gingival Fb grown to 80% confluence, serum-starved, pretreated with Tb4 for one hour then with 20 ng/ml TNFa±Tb4 for 24 hours. […] of conditioned medium was used for ELISA. After removing medium, cells are fixed, stained, and lysed. OD 550 nm readings are used to normalize ELISA data for total cell number. Media control values were negligible and are not shown.
Human gingival fibroblasts (HGF-1, ATCC) were stimulated with TNFα (20 ng/ml), a potent pro-inflammatory cytokine widely used in in vitro models of inflammation.

[6] = system: gingival fibroblasts; assay: APOPercentage apoptosis assay in TNF-α stimulated gingival fibroblasts; type: cell-based, Human; settings: TNF-α 20 ng/ml, 8 hours, 0.01 ug/ml Tβ4, p=0.0004
Description: It is well documented that proteases from oral bacteria such as P. gingivalis can induce death in different cell types in vitro, including fibroblasts, epithelial cells, and endothelial cells. Apoptosis can also be induced as a component of the inflammatory response.
The fibroblasts were then assayed using the APOPercentage assay (Accurate Chemical, Westbury, N.Y.), which detects changes in cell membrane phospholipids. […] The absorbance of released dye can be measured and correlated to the relative amount of apoptosis in the culture. […] There were a greater number of apoptotic cells in fibroblasts stimulated with TNFα compared to cells stimulated with TNFα and also treated with Tβ4.

[7] = system: NFκB; assay: NFκB activity assay in TNF-α stimulated non-transformed human corneal epithelial cells (HCEC); type: cell-based; settings: non-transformed human corneal epithelial culture, Tβ4 treatment, results not shown
Description: Non-transformed human corneal epithelial cells (HCEC) at passage 3 were purchased from Cascade Biologics (Portland, Oreg.). […] HCEC were used for experiments at passage 4. The transformed human corneal epithelial cell line 10.014 pRSV-T (HCET) was additionally used in this study. HCET were maintained in serum-free KGM on tissue culture plastic coated with a fibronectin-collagen type I matrix. Cells were cultured in a standard tissue culture incubator at 37° C. and in an atmosphere of 5% CO2 and 95% room air with medium changes every two days.
as §1, with “The assays were repeated three times (n=3) and the results of a representative assay are reported as NFκB activity in arbitrary units±SEM. Statistical analysis was performed using the unpaired Student's t-test with significance set at P<0.05.” left out

Thymosin beta 4 [Tβ4]
NFκB p65 localization (fluorescence pattern) [1]: mainly perinuclear
NFκB activity versus cells stimulated with TNF-α ([2]; Tβ4 1 μg/ml, 5, 10, 15 and 20 minutes of stimulation): increased NFκB activity
TNF-α induced activation of NFκB ([2]; Tβ4 1 μg/ml, 30 and 60 minutes): significantly suppressed
reduction of NFκB phosphorylation levels ([3]; TNF-α 10 ng/ml, Tβ4 1 μg/ml): 45%
proportion of phosphorylated NFκB ([3]; Tβ4 present during TNF-α stimulation, 100% with TNF-α only): 55%
NFκB protein in nuclear fractions [4]: significant decrease
inhibition of TNFα-stimulated IL-8 secretion ([5]; HGF-1 fibroblasts, TNFα 20 ng/ml, 0.01 ug/ml Tβ4, 24 hours, p=0.0012): most inhibition
IL-8 secretion, dose response ([5]; HGF-1 fibroblasts, TNFα 20 ng/ml, several concentrations of Tβ4, 24 hours, FIG. 3): inhibited IL-8 secretion in a dose-dependent manner
secreted IL-8 versus fibroblasts not treated with Tβ4 ([5]; 1 ug/ml Tβ4, 24 hours, FIG. 1, p=0.0004): significantly lower levels of secreted IL-8
secreted IL-8 versus fibroblasts not treated with Tβ4 ([5]; 5 ug/ml Tβ4, 24 hours, FIG. 1, p=0.0016): significantly lower levels of secreted IL-8
secreted IL-8 versus fibroblasts not treated with Tβ4 ([5]; Tβ4 0.001-5 ug/ml (all levels), 24 hours): lower levels of secreted IL-8
apoptotic cell death induced by TNF-α [6]: significantly inhibits apoptotic cell death
NFκB activity after TNF-α stimulation [7]: decreased NFκB activity
